The values that follow come from the Kinase Knowledgebase extract (Sharma et al. 2016).

For this experiment, the target named is EGFR (human) (UniProt P00533).
EGFR (human), sequence (P00533 whole entry, looked up): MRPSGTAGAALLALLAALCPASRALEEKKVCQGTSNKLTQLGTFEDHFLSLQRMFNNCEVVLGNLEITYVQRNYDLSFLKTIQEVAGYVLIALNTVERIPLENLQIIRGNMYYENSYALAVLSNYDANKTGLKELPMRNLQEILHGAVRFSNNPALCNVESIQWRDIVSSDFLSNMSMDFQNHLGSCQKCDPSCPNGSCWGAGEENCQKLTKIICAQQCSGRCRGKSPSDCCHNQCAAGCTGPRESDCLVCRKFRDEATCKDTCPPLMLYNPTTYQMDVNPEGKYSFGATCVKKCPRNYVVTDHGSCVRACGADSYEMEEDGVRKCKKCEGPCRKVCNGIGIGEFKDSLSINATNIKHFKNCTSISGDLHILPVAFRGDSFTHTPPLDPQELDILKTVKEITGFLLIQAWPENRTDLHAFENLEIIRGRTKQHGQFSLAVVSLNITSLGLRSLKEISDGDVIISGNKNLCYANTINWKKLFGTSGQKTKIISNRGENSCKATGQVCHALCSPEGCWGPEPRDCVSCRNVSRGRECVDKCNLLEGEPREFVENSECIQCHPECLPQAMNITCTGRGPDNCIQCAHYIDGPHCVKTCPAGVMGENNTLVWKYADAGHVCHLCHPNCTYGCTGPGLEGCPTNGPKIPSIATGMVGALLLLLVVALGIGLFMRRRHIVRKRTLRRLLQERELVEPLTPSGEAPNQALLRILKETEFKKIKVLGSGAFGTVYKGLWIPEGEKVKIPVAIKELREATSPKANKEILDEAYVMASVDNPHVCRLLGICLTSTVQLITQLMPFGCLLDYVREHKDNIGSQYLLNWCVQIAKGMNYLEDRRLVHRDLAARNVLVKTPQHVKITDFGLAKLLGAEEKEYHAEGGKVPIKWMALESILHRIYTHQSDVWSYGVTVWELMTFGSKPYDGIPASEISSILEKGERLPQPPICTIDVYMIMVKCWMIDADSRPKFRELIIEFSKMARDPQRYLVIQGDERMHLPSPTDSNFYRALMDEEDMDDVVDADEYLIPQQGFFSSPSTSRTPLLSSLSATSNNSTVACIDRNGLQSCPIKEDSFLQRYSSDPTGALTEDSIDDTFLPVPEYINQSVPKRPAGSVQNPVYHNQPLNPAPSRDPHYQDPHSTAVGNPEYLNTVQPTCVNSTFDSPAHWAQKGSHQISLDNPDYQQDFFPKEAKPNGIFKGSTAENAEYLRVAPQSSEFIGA

Consider `CNc1nc(-c2cccc(NC(=O)c3c(F)cccc3F)c2)c(-c2ccnc(Nc3ccc(OCCN(C)C)c(Cl)c3)n2)s1`, for which the half-maximal inhibitory concentration (IC50) was less than 100 nM.

Compound `CN(C)CCOc1ccc(Nc2nccc(-c3sc(N(C)C)nc3-c3cccc(NC(=O)c4c(F)cccc4F)c3)n2)cc1Cl` showed an IC50 of less than 100 nM.

For `COc1cccc(C(=O)Nc2cccc(-c3nc(C)sc3-c3ccnc(Nc4ccc5c(c4)CN(C)CC5)n3)c2)c1`, the IC50 is less than 100 nM.

In turn, `CN(C)CCOc1ccc(Nc2nccc(-c3sc(-c4ccc(O)cc4)nc3-c3cccc(NC(=O)c4c(F)cccc4F)c3)n2)cc1Cl` yielded a half-maximal inhibitory concentration (IC50) of less than 100 nM.

`Cc1nc(-c2cccc(NC(=O)c3c(F)cccc3F)c2)c(-c2ccnc(Nc3ccc(OC4CCN(C(=O)OCc5ccccc5)CC4)c(F)c3)n2)s1` returned an IC50 of less than 100 nM.

For the compound `CN(C)CCOc1ccc(Nc2nccc(-c3sc(NS(=O)(=O)CC(F)(F)F)nc3-c3cccc(NC(=O)c4c(F)cccc4F)c3)n2)cc1`, the IC50 was less than 100 nM.

For `CN1CCc2ccc(Nc3nccc(-c4sc(N)nc4-c4cccc(NC(=O)c5c(F)cccc5F)c4)n3)cc2C1`, the IC50 is less than 100 nM.

Consider `Cc1cc(Nc2nccc(-c3sc(N(C)C)nc3-c3cccc(NC(=O)c4c(F)cccc4F)c3)n2)ccc1CC1CCNCC1`, for which the IC50 was less than 100 nM.

In turn, `CN(C)c1nc(-c2cccc(NC(=O)c3c(F)cccc3F)c2)c(-c2ccnc(Nc3ccc(N4CCOCC4)c(Cl)c3)n2)s1` gave an IC50 of less than 100 nM.

As for `CC(C)(C)S(=O)(=O)Cc1nc(-c2cccc(NC(=O)c3c(F)cccc3F)c2)c(-c2ccnc(Nc3ccc(OCCN4CCCC4)c(Cl)c3)n2)s1`, the IC50 is less than 100 nM.

Regarding `CCNc1nc(-c2cccc(NC(=O)C3CC3)c2)c(-c2ccnc(Nc3ccc(OCCN4CCCC4)c(Cl)c3)n2)s1`, the IC50 is less than 100 nM.

Take `COc1ccc(Nc2nccc(-c3scnc3-c3cccc(NC(=O)Cc4cccs4)c3)n2)cc1OCCN(C)C`: the IC50 was less than 100 nM.

With `O=C(Nc1cccc(-c2nc(N3CCC3)sc2-c2ccnc(Nc3ccc(OCCN4CCCC4)c(Cl)c3)n2)c1)c1c(F)cccc1F`, the IC50 is less than 100 nM.

`CC(C)(C)c1nc(-c2cccc(NC(=O)c3c(F)cccc3F)c2)c(-c2ccnc(Nc3cccc(CN4CCCC4)c3)n2)s1` registered an IC50 of less than 100 nM.

Compound `CC(C)c1nc(-c2cccc(NC(=O)c3c(F)cccc3F)c2)c(-c2ccnc(Nc3ccc(OCCN4CCCC4)c(Cl)c3)n2)s1` had an IC50 of less than 100 nM.

`Nc1nc(-c2cccc(NC(=O)c3cc(F)ccc3F)c2)c(-c2ccnc(Nc3cccc(-c4cnco4)c3)n2)s1` came in with an IC50 of less than 100 nM.

For `Nc1nc(-c2cccc(NC(=O)c3c(F)cccc3F)c2)c(-c2ccnc(Nc3ccc4c(c3)NC(=O)CO4)n2)s1`, the IC50 was less than 100 nM.

Turning to `CCc1nc(-c2cccc(NC(=O)c3c(F)cccc3F)c2)c(-c2ccnc(Nc3ccc(OCCN(C)C)c(F)c3)n2)s1`, the IC50 was less than 100 nM.

For `CN1CCc2ccc(Nc3nccc(-c4sc(C5CCNCC5)nc4-c4cccc(NC(=O)c5c(F)cccc5F)c4)n3)cc2C1`, the IC50 is less than 100 nM.

As to `CN(C)c1nc(-c2cccc(NC(=O)c3c(F)cccc3F)c2)c(-c2ccnc(Nc3ccc(OCCN4CCCC4)c(Cl)c3)n2)s1`, the IC50 was less than 100 nM.

As to `O=C(Nc1cccc(-c2nc(NCCCN3CCOCC3)sc2-c2ccnc(Nc3cccc(F)c3)n2)c1)c1c(F)cccc1F`, the IC50 is less than 100 nM.

Regarding `COc1ccc(Nc2nccc(-c3scnc3-c3cccc(NC(=O)c4c(F)cccc4F)c3)n2)cc1N1CCN(C)CC1`, the IC50 was less than 100 nM.

`O=C1COc2ccc(Nc3nccc(-c4scnc4-c4cccc(NC(=O)c5cc(F)ccc5F)c4)n3)cc2N1`: the IC50 was less than 100 nM.

As for `CN(C)CCOc1ccc(Nc2nccc(-c3sc(N)nc3-c3cccc(C(=O)Nc4c(F)cccc4F)c3)n2)cc1Cl`, the IC50 is less than 100 nM.

`CCN(CC)CCOc1cccc(Nc2nccc(-c3scnc3-c3cccc(NC(=O)Cc4cccs4)c3)n2)c1` gave a concentration for half-maximal inhibition (IC50) of less than 100 nM.

As for `CC(=O)N1CCC(Oc2ccc(Nc3nccc(-c4sc(C)nc4-c4cccc(NC(=O)c5c(F)cccc5F)c4)n3)cc2F)CC1`, the IC50 was less than 100 nM.

Compound `CN(C)CCCNc1ccc(Nc2nccc(-c3sc(N)nc3-c3cccc(NC(=O)C4CCCCC4)c3)n2)cc1F` showed an IC50 of less than 100 nM.

Compound `CCNc1nc(-c2cccc(NC(=O)c3c(F)cccc3F)c2)c(-c2ccnc(Nc3ccc(CCN4CCCC4)c(F)c3)n2)s1` yielded an IC50 of less than 100 nM.

`Cc1cccc(C(=O)Nc2cccc(-c3nc(C)sc3-c3ccnc(Nc4ccc(OCCN(C)C)c(Cl)c4)n3)c2)c1` registered an IC50 of less than 100 nM.

Regarding `CN(C)C1Cc2ccc(Nc3nccc(-c4scnc4-c4cccc(NC(=O)Cc5cccs5)c4)n3)cc2C1` (centres undefined), the IC50 is less than 100 nM.

On to `CN(C)CCOc1ccc(Nc2nccc(-c3sc(N)nc3-c3cccc(OCc4ccccc4)c3)n2)cc1Cl`, for which the IC50 is less than 100 nM.

The compound `CN(C)CCOc1ccc(Nc2nccc(-c3sc(N)nc3-c3cccc(NC(=O)c4c(F)cccc4F)c3)n2)cc1Cl` returned an IC50 of less than 100 nM.

For `CS(=O)(=O)Cc1ccc(Nc2nccc(-c3sc(N)nc3-c3cccc(NC(=O)c4c(F)cccc4F)c3)n2)cc1`, the IC50 is less than 100 nM.

`COc1cc(Nc2nccc(-c3sc(N)nc3-c3cccc(NC(=O)c4c(F)cccc4F)c3)n2)cc(OC)c1OC` showed an IC50 of less than 100 nM.

For `CN1CCc2ccc(Nc3nccc(-c4sc(N(C)C)nc4-c4cccc(NC(=O)c5c(F)cccc5F)c4)n3)cc2C1`, the IC50 is less than 100 nM.

Compound `O=C(Nc1cccc(-c2nc(NC3CC3)sc2-c2ccnc(Nc3ccc(OCCN4CCCC4)c(F)c3)n2)c1)c1c(F)cccc1F` had an IC50 of less than 100 nM.

`O=C(Nc1cccc(-c2ncsc2-c2ccnc(Nc3ccc4c(c3)CNCC4)n2)c1)c1c(F)cccc1F` came in with an IC50 of less than 100 nM.

As for `Cc1nc(-c2cccc(NC(=O)c3cc(F)ccc3F)c2)c(-c2ccnc(Nc3ccc(OCCN(C)C)c(F)c3)n2)s1`, the IC50 is less than 100 nM.

Turning to `COc1ccc(Nc2nccc(-c3sc(N)nc3-c3cccc(NC(=O)c4c(F)cccc4F)c3)n2)cc1N1CCNCC1`, the half-inhibitory concentration (IC50) was less than 100 nM.

`CN(C)CCOc1cccc(Nc2nccc(-c3scnc3-c3cccc(NC(=O)c4c(F)cccc4F)c3)n2)c1` yielded an IC50 of less than 100 nM.

For `Nc1nc(-c2cccc(NC(=O)c3c(F)cccc3F)c2)c(-c2ccnc(Nc3ccc4c(c3)CNCC4)n2)s1`, the IC50 was less than 100 nM.

Compound `CN(C)CCOc1ccc(Nc2nccc(-c3sc(N)nc3-c3cccc(NC(=O)c4cc(F)ccc4F)c3)n2)cc1Cl` came in with an IC50 of less than 100 nM.

For `CCc1nc(-c2cccc(NC(=O)c3c(F)cccc3F)c2)c(-c2ccnc(Nc3ccc(N4CCC(N5CCCCC5)CC4)c(F)c3)n2)s1`, the IC50 was less than 100 nM.

Take `CN(C)CCOc1cccc(Nc2nccc(-c3scnc3-c3cccc(NC(=O)Cc4cccs4)c3)n2)c1`: the IC50 was less than 100 nM.

`CCN(CC)CCOc1cccc(Nc2nccc(-c3scnc3-c3cccc(NC(=O)c4c(F)cccc4F)c3)n2)c1` had an IC50 of less than 100 nM.

Compound `CN(C)CCOc1cccc(Nc2nccc(-c3sc(NCCCN4CCOCC4)nc3-c3cccc(NC(=O)c4c(F)cccc4F)c3)n2)c1` came in with an IC50 of less than 100 nM.

`COCCNc1nc(-c2cccc(NC(=O)c3cc(F)ccc3F)c2)c(-c2ccnc(Nc3ccc(OC)c(F)c3)n2)s1` registered an IC50 of less than 100 nM.

For `NS(=O)(=O)CCc1cccc(Nc2nccc(-c3scnc3-c3cccc(NC(=O)c4c(F)cccc4F)c3)n2)c1`, the IC50 was less than 100 nM.

In turn, `CN(C)CCOc1ccc(Nc2nccc(-c3scnc3-c3cccc(NC(=O)c4c(F)cccc4F)c3)n2)cc1Cl` had an IC50 of less than 100 nM.

Take `Cc1nc(-c2cccc(NC(=O)c3c(F)cccc3F)c2)c(-c2ccnc(Nc3ccc(OC4CCNCC4)c(F)c3)n2)s1`: the IC50 is less than 100 nM.

Turning to `CN(C)CCOc1ccc(Nc2nccc(-c3sc(NCCCN4CCOCC4)nc3-c3cccc(NC(=O)c4c(F)cccc4F)c3)n2)cc1Cl`, the IC50 was less than 100 nM.

Consider `Cc1nc(-c2cccc(NC(=O)c3cccc(Cl)c3)c2)c(-c2ccnc(Nc3ccc(OCCN(C)C)c(Cl)c3)n2)s1`, for which the IC50 is less than 100 nM.

`COc1ccc(Nc2nccc(-c3sc(NCCN4CCOCC4)nc3-c3cccc(NC(=O)c4cc(F)ccc4F)c3)n2)cc1F`: the IC50 is less than 100 nM.

The compound `Nc1nc(-c2cccc(NC(=O)Cc3cccs3)c2)c(-c2ccnc(Nc3cccc(F)c3)n2)s1` showed an IC50 of less than 100 nM.

`CN(C)CCOc1cccc(Nc2nccc(-c3scnc3-c3cccc(NC(=O)c4cc(F)ccc4F)c3)n2)c1`: the 50% inhibitory concentration (IC50) is less than 100 nM.

As to `Cc1nc(-c2cccc(NC(=O)c3c(F)cccc3F)c2)c(-c2ccnc(Nc3ccc(OCCN4CCCC4)c(Cl)c3)n2)s1`, the IC50 was less than 100 nM.

For `COc1ccc(Nc2nccc(-c3sc(N)nc3-c3cccc(NC(=O)c4c(F)cccc4F)c3)n2)cc1N(C)C`, the IC50 was less than 100 nM.

As to `Cc1nc(-c2cccc(NC(=O)c3c(F)cccc3F)c2)c(-c2ccnc(Nc3ccc(OCCN(C)C)c(Cl)c3)n2)s1`, the IC50 was less than 100 nM.

`COc1ccc(Nc2nccc(-c3sc(N)nc3-c3cccc(NC(=O)c4c(F)cccc4F)c3)n2)cc1F`: the IC50 was less than 100 nM.

`O=C1COc2cc(Nc3nccc(-c4scnc4-c4cccc(NC(=O)c5cc(F)ccc5F)c4)n3)ccc2N1`: the IC50 is less than 100 nM.

Take `COc1ccc(Nc2nccc(-c3sc(N)nc3-c3cccc(NC(=O)c4c(F)cccc4F)c3)n2)cc1OCCN(C)C`: the IC50 was less than 100 nM.

`CN(C)CCCNc1ccc(Nc2nccc(-c3sc(N)nc3-c3cccc(NC(=O)c4cc(F)ccc4F)c3)n2)cc1F` displayed an IC50 of less than 100 nM.

`Nc1nc(-c2cccc(NC(=O)c3c(F)cccc3F)c2)c(-c2ccnc(Nc3cccc(F)c3)n2)s1` yielded an IC50 of less than 100 nM.

For `CN(C)CCCNc1ccc(Nc2nccc(-c3sc(N)nc3-c3cccc(NC(=O)c4cccn4C)c3)n2)cc1F`, the IC50 is less than 100 nM.

Broadly, the IC50 is the concentration that inhibits the measured activity by half.
